One series has as its system STAT6 bla-RA1 cells. The series is described as follows: STAT6 assay (IL-4 stimulated reporter cells). Particulars: for pEC50: interleukin 4 10 ng/mL; for STAT5/STAT6 EC50 ratio (selectivity for STAT6 over STAT5): selectivity for STAT6 over STAT5, from EC50. It is filed as cell-based. Here is the method:
Twenty-five μL of a STAT6 bla-RA1 (Invitrogen # K1243) cell suspension was seeded with a density of 30-40,000 cells/well in 384-well Black View-plates (PerkinElmer #6007460) with clear bottom in assay medium (Opti-MEM (Invitrogen #11058-021)+0.5% heat inactivated fetal bovine Serum (Invitrogen #10082-147)+1% non-essential amino acids (Invitrogen #11140-050)+1% sodium pyruvate (Invitrogen #11360-070)+1% penicillin/streptomycin (Invitrogen #15140-122)); containing 550 ng/mL of CD40 ligand (Invitrogen # PHP0025). The cell plates were incubated overnight in a humidified 37° C. air/CO2 (95%/5%) incubator. The following day, 125 nL of solutions of test compounds and reference compounds were transferred to cell plates using the Labcyte Echo 550 liquid handler. The plates were then incubated for 1 h in a humidified 37° C. air/CO2 (95%/5%) incubator. Hereafter recombinant human interleukin 4 (Invitrogen # PHC0045) were added to the plates also using the Labcyte Echo 550 to a final concentration of 10 ng/mL. The cells were then incubated for 4½-5 h in a humidified 37° C. air/CO2 (95%/5%) incubator. 8 μL of LiveBLAzer substrate mixture (Invitrogen # K1095) were then added to the assay plates, which were incubated overnight at RT. Fluorescence was then measured: Excitation: 405 nm; Emission: 460 nm (green channel), Emission: 535 nm (blue channel). Background was subtracted in both emission channels and the ratio 460/535 nm was calculated for each well.

For the next series, the system named is CYP3A4. As to the kind of experiment: CYP induction, CYP3A4 mRNA expression. It counts as in vitro ADME. Particulars: human, mean fold shift compared to vehicle, read-out: Fold shift in mRNA expr. (CYP 3A4). As for the experimental part: (§1) Reversible CYP inhibition, time dependent CYP inhibition (TDI) and CYP induction was tested at Cyprotex PLC according to authority guidance.
(§2) Induction of CYP1A2, CYP2B6 and CYP3A4 gene expression can serve as sensitive representative endpoints for activation of aryl hydrocarbon receptor (AhR), […], respectively. Induction of these nuclear receptors was assessed by measuring the increase in mRNA encoding for […], respectively, at relevant concentrations.
(§3) A >2-fold shift indicate CYP Induction.

Another series concerns the target CYP2C8 (Homo sapiens (Human), UniProt P10632). The series is described as follows: Reversible CYP inhibition, 2C8. It counts as in vitro ADME. As to conditions: up to 50 μM for Example 3. Here is the method: as §1
In series [1] the target is CYP2B6 (Homo sapiens (Human), UniProt P20813). The series is described as follows: Reversible CYP inhibition, 2B6. It counts as in vitro ADME. Particulars: up to 50 μM for Example 3. As for the experimental part: as §1
The target in series [2] is panel of 23 Tyrosine kinases, including JAK1, and 68 Serine and Threonine kinases. As to the kind of experiment: Kinase selectivity panel at CARNA Biosciences. Particulars: inhibitor concentration approximately 1000 times JAK1 EC50. It counts as biochemical. As for the experimental part: The kinase selectivity profiles of Example 3 of the present invention as well as Examples 644 and 641 of WO2011086053 were evaluated at CARNA Biosciences Inc. with a panel consisting of 23 Tyrosine kinases, including JAK1 (ABL, CSK, EGFR, EPHA2, EPHB1, EPHB4, FGFR1, FLT3, IGF1R, ITK, JAK1, JAK3, KDR, […], PDGFRα, PDGFRβ, PYK2, SRC, TIE2, TRKA and TYRO3) as well as 68 Serine and Threonine kinases ([…], AKT1, AMPKα1/β1/γ1, AurA, AurB, AurC, BRSK2 ([ATP]=Km value), CaMK1a ([ATP]=Km value), CaMK2a ([ATP]=Km value), CaMK4, CDC2/CycB1, CDC7/ASK, CDK2/CycA2, CDK2/CyE1, CDK3/CyE1 ([ATP]=Km value), CDK4/CyD3, CDK6/CyD3, CDK7/CycH/MAT1, CDK9/CycT1, CHK1, CK1ε, CK2α1/β, CK2α2/β, CLK1, CLK2, DAPK1, DYRK1B, Erk2, GSK3α, GSK3β, HGK, IKKβ, IRAK4 ([ATP]=Km value), JNK2, LOK ([ATP]=Km value), MAPKAP2, MLK1, MLK2, MNK2 ([ATP]=Km value), MST1, MST2 ([ATP]=Km value), NEK1, NEK2, NEK6, NEK7, NEK9, p38α, p70S6K, PAK1 ([ATP]=Km value), PAK2, PAK5 ([ATP]=Km value), PBK, PDK1, PIM1, PIM2, PKACα, PKCα, OKD2, PKN1 ([ATP]=Km value), PLK1, PLK2 ([ATP]=Km value), ROCK1, RSK1, SGK, skMLCK ([ATP]=Km value) and TSSK1). […] The percentage of inhibition was measured at an inhibitor concentration of approximately 1000 times JAK1 EC50.

The next series relates to CYP2B6 gene expression. As to the kind of experiment: CYP induction, CYP2B6 mRNA expression. As to conditions: Example 3: up to at least a concentration of 10 μM; Example 644: at 10 μM. It counts as in vitro ADME. Here is the method:
as §1, §2, §3

The test system of series [3] is CYP2B6. As to the kind of experiment: CYP induction, CYP2B6 mRNA expression. It is filed as in vitro ADME. As to conditions: human, mean fold shift compared to vehicle, read-out: Fold shift in mRNA expr. (CYP 2B6). As for the experimental part:
as §1, §2, §3

The next series concerns CYP1A2. As to the kind of experiment: CYP induction, CYP1A2 mRNA expression. It is filed as in vitro ADME. Particulars: human, mean fold shift compared to vehicle, read-out: Fold shift in mRNA expr. (CYP 1A2); for CYP1A2 mRNA fold change vs vehicle at 0.1 μM: >2-fold indicates induction. Here is the method:
as §1, §2, §3

A further series concerns CYP1A2 gene expression. The series is described as follows: CYP induction, CYP1A2 mRNA expression. It is filed as in vitro ADME. Particulars: Example 3: up to at least a concentration of 10 μM. As for the experimental part:
as §1, §2, §3

In series [4] the test system is CYP. The series is described as follows: Reversible CYP inhibition, overall statement. It counts as in vitro ADME. As to conditions: substrate concentrations up to 50 μM. Here is the method: as §1
The target in the next series is CYP2C19 (Homo sapiens (Human), UniProt P33261). As to the kind of experiment: Reversible CYP inhibition, 2C19. Particulars: up to 50 μM for Example 3, up to 25 μM for Examples 644 and 641. It is filed as in vitro ADME. Here is the method: as §1
Series [5] has as its system CYP. The series is described as follows: Time dependent CYP inhibition (TDI). It is filed as in vitro ADME. Here is the method:
as §1

Results on 3 compounds are retold here after patent US10703751B2, “Amino-imidazopyridine derivatives as Janus kinase inhibitors and pharmaceutical use thereof” (LEO Pharma A/S, priority 2017, dated 2020).

Each structure is given as a SMILES string. pEC50, pIC50: −log10 of the molar value. Entries after “also recorded” stand apart in the source; their conditions may differ.

CYP2C19, sequence (P33261 whole entry): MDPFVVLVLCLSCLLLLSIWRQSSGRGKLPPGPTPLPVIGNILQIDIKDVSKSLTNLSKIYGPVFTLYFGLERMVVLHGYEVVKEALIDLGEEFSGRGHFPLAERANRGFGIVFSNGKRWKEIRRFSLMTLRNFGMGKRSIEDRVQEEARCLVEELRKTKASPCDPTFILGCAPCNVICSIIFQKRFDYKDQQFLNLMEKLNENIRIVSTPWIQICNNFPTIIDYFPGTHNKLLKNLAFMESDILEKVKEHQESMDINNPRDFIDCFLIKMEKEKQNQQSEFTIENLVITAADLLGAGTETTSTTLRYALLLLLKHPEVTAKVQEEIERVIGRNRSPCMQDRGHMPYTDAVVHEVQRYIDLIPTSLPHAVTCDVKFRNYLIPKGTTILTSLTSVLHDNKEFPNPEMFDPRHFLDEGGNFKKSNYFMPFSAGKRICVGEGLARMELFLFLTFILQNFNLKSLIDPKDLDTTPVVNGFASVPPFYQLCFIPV
CYP2B6 (Homo sapiens (Human), UniProt P20813), sequence (P20813 whole entry): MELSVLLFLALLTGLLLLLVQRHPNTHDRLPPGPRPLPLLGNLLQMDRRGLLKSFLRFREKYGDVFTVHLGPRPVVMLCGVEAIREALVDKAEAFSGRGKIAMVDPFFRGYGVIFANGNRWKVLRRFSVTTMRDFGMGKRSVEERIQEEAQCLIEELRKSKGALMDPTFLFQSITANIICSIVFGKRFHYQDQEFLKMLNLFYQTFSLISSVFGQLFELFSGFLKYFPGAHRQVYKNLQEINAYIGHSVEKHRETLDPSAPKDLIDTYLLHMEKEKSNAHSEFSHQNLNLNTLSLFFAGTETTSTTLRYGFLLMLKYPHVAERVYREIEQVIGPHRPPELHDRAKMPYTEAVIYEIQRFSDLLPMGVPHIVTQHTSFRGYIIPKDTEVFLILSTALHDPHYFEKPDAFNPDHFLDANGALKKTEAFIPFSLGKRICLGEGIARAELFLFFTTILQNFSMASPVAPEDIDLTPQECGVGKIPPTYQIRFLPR
CYP2C8, sequence (P10632 whole entry): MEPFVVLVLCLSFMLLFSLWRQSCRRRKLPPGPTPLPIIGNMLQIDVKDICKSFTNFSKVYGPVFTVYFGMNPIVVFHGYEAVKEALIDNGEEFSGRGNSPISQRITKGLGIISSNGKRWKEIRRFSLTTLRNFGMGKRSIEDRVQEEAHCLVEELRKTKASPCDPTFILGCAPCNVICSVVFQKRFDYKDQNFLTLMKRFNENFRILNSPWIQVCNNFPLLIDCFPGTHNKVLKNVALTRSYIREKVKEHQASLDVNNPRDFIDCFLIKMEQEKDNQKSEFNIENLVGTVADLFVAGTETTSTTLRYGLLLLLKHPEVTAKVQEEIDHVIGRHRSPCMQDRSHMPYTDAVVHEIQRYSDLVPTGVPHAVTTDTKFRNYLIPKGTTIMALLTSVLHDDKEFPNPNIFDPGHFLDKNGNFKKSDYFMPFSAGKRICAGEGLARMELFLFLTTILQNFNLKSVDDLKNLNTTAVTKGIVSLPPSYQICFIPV

Broadly, the pEC50 is the negative decadic logarithm of the EC50, by convention in mol/L. The pIC50 is the negative decadic logarithm of the IC50, by convention in mol/L. `CNc1cc2c(cn1)nc([C@@H](C)O)n2[C@H]1CC[C@H](CC#N)CC1` [Example 3, trans-2-[4-[2-[(1R)-1-Hydroxyethyl]-6-(methylamino)imidazo[4,5-c]pyridin-1-yl]cyclohexyl]acetonitrile]: in the series on STAT6 bla-RA1 cells, the pEC50 is 7.02 and the “STAT5/STAT6 EC50 ratio (selectivity for STAT6 over STAT5)” value stood at 68. In the series with CYP3A4, the CYP3A4 mRNA fold induction vs vehicle at 5 μM amounted to 1.2, the CYP3A4 mRNA fold induction vs vehicle at 20 μM is 1.5 and the CYP3A4 mRNA fold induction vs vehicle at 50 μM was determined as 2. Moreover, the pIC50 at CYP2C8 is < 4.30. The pIC50 at CYP2B6 [1] is < 4.30. In series [2], the “Kinases of the panel inhibited by 50% or more (summary)” value is “none of the tested kinases except JAK1 were inhibited by more than 50%” and the “Tyrosine kinases inhibited by 50% or more at an ATP concentration of 1 mM (n ≥ 2)” value is reported as “JAK1”. For the same compound, the “CYP2B6 induction (in words)” value in the series with CYP2B6 gene expression is listed as “does not cause”. In addition, in the series with CYP2B6 [3], the fold change in CYP2B6 mRNA expression vs vehicle at 0.1 μM amounted to 1.1, the fold change in CYP2B6 mRNA expression vs vehicle at 1 μM was 1.5 and the fold change in CYP2B6 mRNA expression vs vehicle at 10 μM amounted to 1.7. Besides, in the series on CYP1A2, the CYP1A2 mRNA fold change vs vehicle at 0.1 μM turned out to be 0.8, the CYP1A2 mRNA fold change vs vehicle at 1 μM stood at 0.7 and the CYP1A2 mRNA fold change vs vehicle at 10 μM was determined as 0.8. In the series on CYP1A2 gene expression, the “CYP1A2 induction (in words)” value is given as “does not cause”. Moreover, in the series with CYP [4], the “CYP inhibition (in words)” value was “no CYP inhibition”. Also, the pIC50 at CYP2C19 was < 4.30. Further, in the series on CYP [5], the “time dependent CYP inhibition (in words)” value is listed as “No time dependent CYP inhibition was indicated”.

Regarding `C[C@@H](O)c1nc2cnc3[nH]ccc3c2n1[C@H]1CC[C@H](CC#N)CC1` [Example 644 of WO2011086053], in the series with STAT6 bla-RA1 cells, the pEC50 was 7.98. Further, in series [2], the “Kinases of the panel inhibited by 50% or more (summary)” value is on record as “inhibited nine other kinases besides JAK1 by 50% or more”; the “Serine and Threonine kinases inhibited by 50% or more (n ≥ 2)” value was “BRSK2, [ATP] = 50 μM; also recorded: LOK, [ATP] = 100 μM; also recorded: MST2, [ATP] = 75 μM; also recorded: PKN1, [ATP] = 25 μM”; the “Tyrosine kinases inhibited by 50% or more at an ATP concentration of 1 mM (n ≥ 2)” value was “JAK1 and FGFR1 and FLT3 and KDR and PDGFRα and PDGFRβ”. The “CYP2B6 induction (in words)” value with CYP2B6 gene expression is given as “CYP2B6 induction at a concentration of 10 μM”. Moreover, the pIC50 on CYP2C19 was < 4.60.

Regarding `C[C@@H](O)c1nc2cnc3[nH]ccc3c2n1[C@H]1CC[C@H](C#N)CC1` [Example 641 of WO2011086053], in the series on STAT6 bla-RA1 cells, the pEC50 is 6.75 and the “STAT5/STAT6 EC50 ratio (selectivity for STAT6 over STAT5)” value came to 32. In addition, in the series on CYP3A4, the CYP3A4 mRNA fold induction vs vehicle at 5 μM was found to be 1.8, the CYP3A4 mRNA fold induction vs vehicle at 20 μM turned out to be 2.5 and the CYP3A4 mRNA fold induction vs vehicle at 50 μM worked out at 4. In series [2], the “Kinases of the panel inhibited by 50% or more (summary)” value is recorded as “inhibited nine other kinases besides JAK1 by 50% or more”; the “Serine and Threonine kinases inhibited by 50% or more (n ≥ 2)” value is “BRSK2, [ATP] = 50 μM; also recorded: LOK, [ATP] = 100 μM; also recorded: MST1, [ATP] = 1 mM; also recorded: MST2, [ATP] = 75 μM; also recorded: PKN1, [ATP] = 25 μM”; the “Tyrosine kinases inhibited by 50% or more at an ATP concentration of 1 mM (n ≥ 2)” value was “JAK1 and FGFR1 and FLT3 and KDR and PDGFRα”. In the series on CYP2B6 [3], the fold change in CYP2B6 mRNA expression vs vehicle at 0.1 μM amounted to 1, the fold change in CYP2B6 mRNA expression vs vehicle at 1 μM was determined as 1.3 and the fold change in CYP2B6 mRNA expression vs vehicle at 10 μM stood at 1.4. For the same compound, in the series on CYP1A2, the CYP1A2 mRNA fold change vs vehicle at 0.1 μM is 0.9, the CYP1A2 mRNA fold change vs vehicle at 1 μM was 0.8 and the CYP1A2 mRNA fold change vs vehicle at 10 μM is 0.9. Also, at CYP2C19, the pIC50 is < 4.60.
